In series [1] the test system is T-cell. In words: Antagonist activity at PKA in human CD3-positive T cells assessed as inhibition of cell proliferation after 72 hrs by [H]thymidine incorporation assay. The format is functional, cell-based.
Series [2] relates to T-cell. In words: Induction of PKA activation in human CD3-positive T cells assessed as increase of cell proliferation after 72 hrs by [H]thymidine incorporation assay. The format is cell-based.
Series [3] can be described thus: Cytotoxicity against human CD3-positive T cells assessed as [H]thymidine incorporation after 72 hrs by beta scintillation counting. To be noted: t-cell. The format is cell-based.
Series [4] in a line: Antagonist activity at PKA in human CD3-positive T cells assessed as inhibition of cell proliferation after 72 hrs by [H]thymidine incorporation assay relative to (RP)-8-Br-cAMPS. In kind it is functional. (In general: Dividing cells build labelled thymidine or BrdU into new DNA.)
In series [5] the test system is T-cell. Briefly: Induction of PKA activation in human CD3-positive T cells assessed as increase of cell proliferation after 72 hrs by [H]thymidine incorporation assay relative to (SP)-8-Br-cAMPS. In kind it is cell-based.

Activity calls are given as the source filed them. The rule behind the calls is not given here.

In the case of `CN(C)c1ncnc2c1nc(-c1ccco1)n2[C@@H]1O[C@@H]2COP(=O)([S-])O[C@H]2[C@H]1O.[Na+]` (stereo not given in full), the “Inhibition of cell proliferation (active/not active)” value (shortened to “Inhibition … (active/not active)”) with T-cell [1] is “inactive”. Also, the outcome in the series on T-cell [2] was Active. In addition, the Activity entry in series [3] was “Non-toxic”. Also, in series [4], the Ratio turned out to be 0.1.

Take `CNc1ncnc2c1nc(-c1ccco1)n2[C@@H]1O[C@@H]2COP(=O)([S-])O[C@H]2[C@H]1O.[Na+]` (stereo not given in full): in the series with T-cell [1], the “Inhibition … (active/not active)” value is “Active”. Moreover, in the series on T-cell [2], the result was Active. The Activity entry in series [3] is “Non-toxic”. The Ratio in series [4] came out at 0.2.

For `CCCNc1ncnc2c1nc(-c1ccco1)n2[C@@H]1O[C@@H]2COP(=O)(S)O[C@H]2[C@H]1O` (stereo not given in full), the “Inhibition … (active/not active)” value in the series with T-cell [1] was “Active”. The outcome with T-cell [2] was Active. Further, the Activity result in series [3] was “Non-toxic”. Besides, in series [4], the Ratio stood at 0.24.

As for `O=P1([S-])OC[C@H]2O[C@@H](n3c(-c4ccco4)nc4c(NCc5ccccc5)ncnc43)[C@H](O)[C@@H]2O1.[Na+]` (stereo not given in full), the “Inhibition … (active/not active)” value in the series on T-cell [1] was “inactive”. For the same compound, in the series with T-cell [2], the result was inactive. For the same compound, in series [3], the Activity entry is reported as “Non-toxic”. The Ratio in the series on T-cell [5] came out at 0.99.

Regarding `CCCCNc1ncnc2c1nc(-c1ccco1)n2[C@@H]1O[C@@H]2COP(=O)(S)O[C@H]2[C@H]1O` (stereo not given in full), in the series on T-cell [1], the “Inhibition … (active/not active)” value is “Active”. In addition, the outcome in the series with T-cell [2] was Active. Also, in series [3], the Activity entry is recorded as “Non-toxic”. The Ratio in series [4] stood at 0.53.

Source of the values: ChEMBL document CHEMBL1921727, “Stereoselective synthesis of (RP)-8-substituted-N⁶-acylated and N⁶-alkylated adenosine-3',5'-cyclic phosphorothioic acids as cAMP antagonists” (Eur J Med Chem, 2011).
